The values below are quoted from earlier work in patent US10098891B2, “Highly concentrated stable meloxicam solutions for needleless injection” (BOEHRINGER INGELHEIM VETMEDICA GMBH, priority 2001, dated 2018).

The conditions of the data set: aqueous solution.

`Cc1cnc(NC(=O)C2=C(O)c3ccccc3S(=O)(=O)N2C)s1` [meloxicam, 4-hydroxy-2-methyl-N-(5-methyl-2-thiazolyl)-2H-1,2-benzothiazine-3-carboxamide-1,1-dioxide]: the solubility in water result is listed as “does not dissolve readily in water”.
